According to article PMC3914206:

Assays:
Format in all cases: binding
[1] = molecular target: T1, panel of 442 kinases (Homo sapiens, UniProt Q9BYT3); conditions: kinase STK33; compound concentration 10 µM
T1 construct: purchased KINOMEscan
Source text: (§1) We assessed the selectivity of members of this scaffold using the KINOMEscan methodology across a near comprehensive panel of 442 kinases [[18,27]].

[2] = molecular target: T2, panel of 442 kinases (Homo sapiens, UniProt Q16566); conditions: Compound Concentration 10 µM
T2 construct: purchased KINOMEscan
T2 sequence (Q16566 1-473): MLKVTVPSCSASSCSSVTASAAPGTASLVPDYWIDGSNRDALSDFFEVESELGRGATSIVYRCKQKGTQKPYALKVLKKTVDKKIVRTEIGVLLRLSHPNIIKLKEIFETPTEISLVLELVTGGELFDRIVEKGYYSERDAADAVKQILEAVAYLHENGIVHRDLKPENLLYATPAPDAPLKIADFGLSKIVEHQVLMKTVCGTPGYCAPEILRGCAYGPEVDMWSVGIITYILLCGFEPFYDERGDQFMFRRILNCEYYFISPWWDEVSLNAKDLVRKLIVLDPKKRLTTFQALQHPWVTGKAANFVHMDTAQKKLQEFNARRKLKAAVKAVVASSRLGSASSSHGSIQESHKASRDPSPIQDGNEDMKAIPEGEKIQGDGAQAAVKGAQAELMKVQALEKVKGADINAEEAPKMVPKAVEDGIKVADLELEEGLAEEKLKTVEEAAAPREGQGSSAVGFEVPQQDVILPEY
Source text: as §1

[3] = molecular target: T3, panel of 442 kinases (Homo sapiens, UniProt P51817); conditions: Compound Concentration 10 µM
T3 construct: purchased KINOMEscan
T3 sequence (P51817 1-358): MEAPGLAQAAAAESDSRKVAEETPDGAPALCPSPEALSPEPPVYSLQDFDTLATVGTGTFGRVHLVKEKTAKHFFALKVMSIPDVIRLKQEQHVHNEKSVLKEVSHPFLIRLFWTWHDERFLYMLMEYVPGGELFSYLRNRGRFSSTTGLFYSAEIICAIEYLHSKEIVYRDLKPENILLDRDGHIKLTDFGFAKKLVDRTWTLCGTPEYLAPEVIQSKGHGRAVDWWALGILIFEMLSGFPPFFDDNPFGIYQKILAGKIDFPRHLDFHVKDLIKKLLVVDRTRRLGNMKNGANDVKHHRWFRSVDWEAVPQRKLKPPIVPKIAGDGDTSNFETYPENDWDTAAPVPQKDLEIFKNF
Source text: as §1

T1 sequence (Q9BYT3 whole entry): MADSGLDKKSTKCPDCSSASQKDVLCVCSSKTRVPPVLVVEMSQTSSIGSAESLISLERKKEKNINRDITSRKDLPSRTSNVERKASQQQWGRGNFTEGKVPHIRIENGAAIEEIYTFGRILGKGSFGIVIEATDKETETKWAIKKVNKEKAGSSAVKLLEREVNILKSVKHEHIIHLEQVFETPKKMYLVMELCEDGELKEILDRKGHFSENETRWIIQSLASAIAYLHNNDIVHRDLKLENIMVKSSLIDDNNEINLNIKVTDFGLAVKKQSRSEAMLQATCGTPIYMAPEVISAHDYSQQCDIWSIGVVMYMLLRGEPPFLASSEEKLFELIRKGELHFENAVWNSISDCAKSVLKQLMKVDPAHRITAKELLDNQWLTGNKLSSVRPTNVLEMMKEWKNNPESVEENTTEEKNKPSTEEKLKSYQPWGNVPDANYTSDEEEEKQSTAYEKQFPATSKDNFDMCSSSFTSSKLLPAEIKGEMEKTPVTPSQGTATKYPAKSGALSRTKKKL

Structure (SMILES) | % Ctrl, STK33 [1] [% Ctrl] | KINOMEscan: CAMK4 [2] | KINOMEscan: PRKX [3]
CCOc1cc(C(=O)N2CCC(N3CCN(C)CC3)CC2)ccc1Nc1ncc2c(n1)N(C1CCCC1)c1ccccc1C(=O)N2C [Compound 26] | 100 | 100 | 100
COc1cc(C(=O)N2CCC(N3CCN(C)CC3)CC2)ccc1Nc1ncc2c(n1)N(C1CCCC1)c1ccccc1C(=O)N2C [Compound 25, 11-cyclopentyl-2-((2-methoxy-4-(4-(4-methylpiperazin-1-yl)piperidine-1-carbonyl)phenyl)amino)-5-methyl-5H-benzo[e]pyrimido[5,4-b][1,4]diazepin-6(11H)-one] | 81 | 82 | 100
COc1cc(C(=O)N2CCC(N3CCN(C)CC3)CC2)ccc1Nc1ncc2c(n1)N1CCc3cccc(c31)C(=O)N2C [Compound 24] | – | – | 87
COc1cc(C(=O)N2CCC(N3CCN(C)CC3)CC2)ccc1Nc1ncc2c(n1)N(C)c1ccccc1C(=O)N2C [15 (LRRK2-IN-1)] | 10 | 79 | 99
